Test results taken from patent US20230242885A1, “METHOD OF PRODUCING CARDIOMYOCYTE POPULATION, METHOD OF PROLIFERATING CARDIOMYOCYTES, CARDIOMYOCYTE POPULATION, TRANSPLANTATION MATERIAL, MULTINUCLEATED CARDIOMYOCYTE, AND KIT FOR PROLIFERATING CARDIOMYOCYTES” (Myoridge Co. Ltd., priority 2020, published 2023).

Tests used:
[1] = system: cardiomyocyte population (third serial subculture); test: Drug responsiveness test by calcium imaging; assay type: cell-based, human; details: terfenadine 300 to 900 nM; calcium signal 10 minutes after addition
Protocol: The obtained cardiomyocyte population was tested for drug responsiveness. A drug responsiveness test was performed by calcium imaging using a fluorescence microscope. Specifically, the drug responsiveness test was performed by acquiring pulsatile calcium fluorescence movies of cardiomyocytes on a fluorescence microscope Olympus IX83.
In the drug responsiveness test, a mixture having the following composition was adjusted to pH 7.4 and used as a culture solution for cardiomyocytes:
ImageJ-based image analysis software was used for data analysis.

[2] = system: cardiomyocytes induced from human iPS cells (253G1 strain); test: Proliferation culture of cardiomyocytes with WNT signal activator CHIR99021, serial subculture (Example 2); assay type: cell-based; details: for cTnT positive rate (cardiomyocyte purity): CHIR99021 added (1 to 5 μM); for proliferation rate compared with no CHIR99021: CHIR99021 1 to 5 μM; for total cardiomyocyte proliferation: 2.0×10^5 cells/cm^2
Protocol: A “ratio of multinucleated cardiomyocytes” was determined from a percentage of multinucleated cardiomyocytes in 10,000 cardiomyocytes.
Thereafter, the culture medium was replaced every 3 to 4 days, and culturing was performed for 2 weeks (a first serial subculture).
For the cells obtained after each serial subculture, “cardiomyocyte purity”, “cardiomyocyte proliferation rate”, “ratio of multinucleated cardiomyocytes”, and “average maximum length of multinucleated cardiomyocytes” were determined according to the same procedure as in Example 1.

SMILES | early afterdepolarization (EAD) response [1] | cTnT positive rate (cardiomyocyte purity) ([2]; after the first serial subculture, before culturing 90 to 96%) | cTnT positive rate (cardiomyocyte purity) ([2]; after the second serial subculture) | concentration of CHIR99021 at which the cardiomyocyte proliferation rate was the highest ([2]; first and second serial subculture, tested 1, 2, 3, 5 μM) | cardiomyocyte proliferation rate ([2]; first serial subculture (2 weeks), seeding density 2.0×10^5 cells/cm^2, CHIR99021 3 μM) | proliferation rate compared with no CHIR99021 ([2]; first serial subculture) | total cardiomyocyte proliferation ([2]; in total after the second serial subculture, CHIR99021 3 μM) | total cardiomyocyte proliferation ([2]; in total after the third to fourth serial subcultures, CHIR99021 3 μM) | proliferation rate compared with no CHIR99021 ([2]; second serial subculture)
CC(C)(C)c1ccc(C(O)CCCN2CCC(C(O)(c3ccccc3)c3ccccc3)CC2)cc1 (stereo not drawn) [terfenadine] | detected | – | – | – | – | – | – | – | –
Cc1cnc(-c2cnc(NCCNc3ccc(C#N)cn3)nc2-c2ccc(Cl)cc2Cl)[nH]1 [CHIR99021, 6-[2-[[4-(2,4-dichlorophenyl)-5-(5-methyl-1H-imidazol-2-yl)pyrimidin-2-yl]amino]ethylamino]pyridine-3-carbonitrile] | – | ≥ 90% | ≥ 90% | 3 µM | 4.5 fold | higher proliferation rates | 12.6 fold | 22.7 fold | higher proliferation rates
